Data published in ChEMBL document CHEMBL1144330, “Novel pyrazinone mono-amides as potent and reversible caspase-3 inhibitors” (Bioorg Med Chem Lett, 2005).

What was measured:
Caspase-3 = target: T1, Caspase-3 (Homo sapiens, UniProt P42574); experiment: Inhibitory concentration against recombinant human caspase-3 in neuronal precursor (NT2) cells
T1 sequence (P42574 whole entry): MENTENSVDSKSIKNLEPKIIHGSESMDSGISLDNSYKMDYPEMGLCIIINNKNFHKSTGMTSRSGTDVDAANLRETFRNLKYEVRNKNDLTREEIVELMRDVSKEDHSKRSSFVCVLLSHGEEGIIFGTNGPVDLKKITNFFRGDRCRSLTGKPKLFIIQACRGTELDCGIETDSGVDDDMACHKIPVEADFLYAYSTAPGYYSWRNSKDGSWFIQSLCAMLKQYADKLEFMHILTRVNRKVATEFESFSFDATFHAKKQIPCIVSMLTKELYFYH

NT2 = experiment: Inhibitory concentration against camptothecin induced apoptosis in neuronal precursor (NT2) whole cells; assay type: functional, cell-based; details: Homo sapiens
Caspase-1 = target: T2, Caspase-1 (Homo sapiens, UniProt P29466); experiment: Inhibitory concentration against recombinant human caspase-1 in neuronal precursor (NT2) cells
T2 sequence (P29466 whole entry): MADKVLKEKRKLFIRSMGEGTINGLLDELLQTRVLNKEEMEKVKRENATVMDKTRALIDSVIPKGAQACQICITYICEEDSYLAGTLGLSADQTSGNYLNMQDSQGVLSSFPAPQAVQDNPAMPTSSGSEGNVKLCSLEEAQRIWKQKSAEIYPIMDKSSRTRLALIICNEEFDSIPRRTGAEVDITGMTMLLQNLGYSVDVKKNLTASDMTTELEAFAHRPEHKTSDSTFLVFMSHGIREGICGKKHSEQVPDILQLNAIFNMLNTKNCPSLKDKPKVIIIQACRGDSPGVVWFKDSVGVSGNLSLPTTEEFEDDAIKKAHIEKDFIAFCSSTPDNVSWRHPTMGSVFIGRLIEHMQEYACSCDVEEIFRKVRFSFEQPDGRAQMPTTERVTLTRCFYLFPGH

Caspase-8 = Caspase-8 (Homo sapiens, UniProt Q14790); experiment: Inhibitory concentration against recombinant human caspase-8 […]
Caspase-7 = target: T3, Caspase-7 (Homo sapiens, UniProt P55210); experiment: Inhibitory concentration against recombinant human caspase-7 […]
T3 sequence (P55210 whole entry): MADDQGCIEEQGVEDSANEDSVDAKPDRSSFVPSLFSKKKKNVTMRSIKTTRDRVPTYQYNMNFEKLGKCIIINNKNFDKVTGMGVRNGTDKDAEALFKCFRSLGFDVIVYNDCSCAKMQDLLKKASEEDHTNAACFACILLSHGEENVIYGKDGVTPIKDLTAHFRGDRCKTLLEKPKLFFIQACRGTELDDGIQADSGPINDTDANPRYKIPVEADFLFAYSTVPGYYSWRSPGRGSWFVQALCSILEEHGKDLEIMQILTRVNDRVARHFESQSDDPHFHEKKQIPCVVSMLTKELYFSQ

Sequence of Caspase-8 (Q14790 217-374 limits assumed): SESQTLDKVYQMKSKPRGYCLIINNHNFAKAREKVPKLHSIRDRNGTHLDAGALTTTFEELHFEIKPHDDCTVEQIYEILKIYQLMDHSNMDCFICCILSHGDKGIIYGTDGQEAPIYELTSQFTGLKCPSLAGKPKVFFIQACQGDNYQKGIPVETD
Sequence of Caspase-8 (Q14790 385-479 limits assumed): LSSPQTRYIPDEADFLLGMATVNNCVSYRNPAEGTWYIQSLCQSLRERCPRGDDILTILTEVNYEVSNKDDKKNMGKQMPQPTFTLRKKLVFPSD

Structure (SMILES)	IC50 (Caspase-3)	IC50 (NT2)	IC50 (Caspase-1)	IC50 (Caspase-8)	IC50 (Caspase-7)
CCC(C(=O)N[C@@H](CC(=O)O)C(=O)CSCc1ccccc1)n1ccnc(NCCn2cccn2)c1=O (stereo not given in full)	82 nM	7090 nM	990 nM	2260 nM	> 10000 nM
CCC(C(=O)N[C@@H](CC(=O)O)C(=O)c1ncc(-c2ccccc2)o1)n1ccnc(NCc2nonc2C)c1=O (stereo not given in full)	63 nM	8390 nM	460 nM	9570 nM	750 nM
CCC(C(=O)N[C@@H](CC(=O)O)C(=O)CNCN(CC)CC)n1ccnc(NCc2nonc2C)c1=O (stereo not given in full)	120 nM	3900 nM	1140 nM	> 10000 nM	3240 nM
CCC(C(=O)N[C@@H](CC(=O)O)C(=O)CSCc1ccccc1)n1ccnc(NCc2cccs2)c1=O (stereo not given in full)	36 nM	4560 nM	65 nM	2090 nM	810 nM
CCC(C(=O)N[C@@H](CC(=O)O)C(=O)CNCN1CCCC1)n1ccnc(NCc2nonc2C)c1=O (stereo not given in full)	33 nM	840 nM	290 nM	6220 nM	410 nM
CCC(C(=O)N[C@@H](CC(=O)O)C(=O)CSCc1ccccc1)n1ccnc(NCCCOC)c1=O (stereo not given in full)	71 nM	> 10000 nM	920 nM	7650 nM	9730 nM
CCC(C(=O)N[C@H](C=O)CC(=O)O)n1ccnc(NCc2nonc2C)c1=O (stereo not given in full)	78 nM	3560 nM	150 nM	990 nM	1000 nM
CCC(C(=O)N[C@@H](CC(=O)O)C(=O)CSCc1ccccc1)n1ccnc(NCCOC)c1=O (stereo not given in full)	140 nM	6790 nM	1110 nM	> 10000 nM	> 10000 nM
CCC(C(=O)N[C@@H](CC(=O)O)C(=O)CSCc1ccccc1)n1ccnc(NCCCc2nc(C)no2)c1=O (stereo not given in full)	53 nM	7100 nM	1700 nM	> 10000 nM	2600 nM
CCC(C(=O)N[C@@H](CC(=O)O)C(=O)CNCN1CCC(Cc2ccccc2)CC1)n1ccnc(NCc2nonc2C)c1=O (stereo not given in full)	56 nM	1620 nM	47 nM	6020 nM	840 nM
CCC(C(=O)N[C@@H](CC(=O)O)C(=O)CSCc1ccccc1)n1ccnc(NCCc2nc(C)no2)c1=O (stereo not given in full)	80 nM	15300 nM	900 nM	9100 nM	> 10000 nM
CCC(C(=O)N[C@@H](CC(=O)O)C(C)=O)n1cc(C(C)(C)C)nc(NCc2nonc2C)c1=O (stereo not given in full)	64 nM	5120 nM	1230 nM	10000 nM	480 nM
CCC(C(=O)N[C@@H](CC(=O)O)C(=O)CSCc1ccccc1)n1ccnc(NCC2COc3ccccc3O2)c1=O (stereo not given in full)	140 nM	30000 nM	87 nM	8220 nM	3280 nM
CCC(C(=O)N[C@@H](CC(=O)O)C(=O)CNCN(C)C)n1ccnc(NCc2nonc2C)c1=O (stereo not given in full)	42 nM	2640 nM	890 nM	> 10000 nM	310 nM
CCC(C(=O)N[C@@H](CC(=O)O)C(=O)CSCc1ccccc1)n1ccnc(NCCCN2CCCC2=O)c1=O (stereo not given in full)	190 nM	50000 nM	1900 nM	9920 nM	> 10000 nM
CCC(C(=O)N[C@@H](CC(=O)O)C(=O)CSCc1ccccc1)n1ccnc(NCc2nccs2)c1=O (stereo not given in full)	26 nM	3080 nM	130 nM	1750 nM	1130 nM
CCC(C(=O)N[C@@H](CC(=O)O)C(=O)CNCN1CCOCC1)n1cc(C(C)(C)C)nc(NCc2nonc2C)c1=O (stereo not given in full)	110 nM	8620 nM	730 nM	> 10000 nM	540 nM
CCC(C(=O)N[C@@H](CC(=O)O)C(=O)CSCc1ccccc1)n1ccnc(NCc2nnc(-c3ccccc3)o2)c1=O (stereo not given in full)	310 nM	52100 nM	980 nM	4920 nM	> 10000 nM
CCC(C(=O)N[C@@H](CC(=O)O)C(=O)CSCc1ccccc1)n1ccnc(NCc2nc(C)no2)c1=O (stereo not given in full)	48 nM	5330 nM	670 nM	6420 nM	4680 nM
CCC(C(=O)N[C@@H](CC(=O)O)C(=O)CSCc1ccccc1)n1ccnc(NCCn2nc(C)cc2C)c1=O (stereo not given in full)	160 nM	9480 nM	1820 nM	1660 nM	> 10000 nM

Now those with a lower IC50 (Caspase-3), led by results:

IC50 (Caspase-3)	IC50 (NT2)	IC50 (Caspase-1)	IC50 (Caspase-8)	IC50 (Caspase-7)	Structure (SMILES)
13 nM	4.8 nM	63 nM	9040 nM	65 nM	CCCCCCN(C)CNCC(=O)[C@H](CC(=O)O)NC(=O)C(CC)n1cc(C(C)C)nc(NCc2nonc2C)c1=O (stereo not given in full)
5 nM	1000 nM	1600 nM	490 nM	120 nM	COc1ccc(S(C)(=O)=O)cc1CC(=O)N[C@H](C(=O)N[C@@H](CC(=O)O)C(=O)CSCc1ccccc1)C(C)C
13 nM	300 nM	48 nM	> 10000 nM	110 nM	CCCCCN(C)CNCC(=O)[C@H](CC(=O)O)NC(=O)C(CC)n1ccnc(NCc2nonc2C)c1=O (stereo not given in full)
16 nM	25 nM	110 nM	> 10000 nM	87 nM	CCCCCCN(C)CNCC(=O)[C@H](CC(=O)O)NC(=O)C(CC)n1cc(C(C)(CC)CC)nc(NCc2nonc2C)c1=O (stereo not given in full)
7.9 nM	1390 nM	220 nM	2460 nM	730 nM	CCC(C(=O)N[C@@H](CC(=O)O)C(=O)CSCc1ccccc1)n1ccnc(NCc2nonc2C)c1=O (stereo not given in full)
14 nM	1380 nM	5130 nM	5280 nM	140 nM	CCC(C(=O)N[C@@H](CC(=O)O)C(=O)CCCc1ccccc1)n1cc(C(C)(C)C)nc(NCc2nonc2C)c1=O (stereo not given in full)
9 nM	150 nM	25 nM	> 10000 nM	100 nM	CCCCCCCCN(C)CNCC(=O)[C@H](CC(=O)O)NC(=O)C(CC)n1ccnc(NCc2nonc2C)c1=O (stereo not given in full)
17 nM	1420 nM	620 nM	> 10000 nM	320 nM	CCCN(C)CNCC(=O)[C@H](CC(=O)O)NC(=O)C(CC)n1ccnc(NCc2nonc2C)c1=O (stereo not given in full)
6 nM	78 nM	25 nM	9540 nM	600 nM	CCCCCCN(C)CNCC(=O)[C@H](CC(=O)O)NC(=O)C(CC)n1cc(CC)nc(NCc2nonc2C)c1=O (stereo not given in full)
0.3 nM	5200 nM	60 nM	220 nM	10 nM	CC[C@@H](C(=O)N[C@@H](CC(=O)O)C(=O)CSCc1ccccc1)n1cccc(NC(=O)[C@H](CC(=O)O)NC(C)=O)c1=O
13 nM	1250 nM	13 nM	7380 nM	83 nM	CCC(C(=O)N[C@@H](CC(=O)O)C(=O)CNCN1CCc2ccccc2C1)n1ccnc(NCc2nonc2C)c1=O (stereo not given in full)
11 nM	130 nM	28 nM	> 10000 nM	140 nM	CCCCCCN(C)CNCC(=O)[C@H](CC(=O)O)NC(=O)C(CC)n1ccnc(NCc2nonc2C)c1=O (stereo not given in full)
21 nM	290 nM	620 nM	> 10000 nM	130 nM	CCC(C(=O)N[C@@H](CC(=O)O)C(=O)CNCN1CCCCC1)n1cc(C(C)(C)C)nc(NCc2nonc2C)c1=O (stereo not given in full)
14 nM	1200 nM	64 nM	9260 nM	1040 nM	CCC(C(=O)N[C@@H](CC(=O)O)C(=O)CN[C@@H](C)c1ccccc1)n1ccnc(NCc2nonc2C)c1=O (stereo not given in full)
0.8 nM	30000 nM	310 nM	16 nM	8 nM	CC(=O)N[C@@H](CC(=O)O)C(=O)N[C@@H](CCC(=O)O)C(=O)N[C@H](C(=O)N[C@@H](CC(=O)O)C(=O)CCCc1ccccc1)C(C)C
15 nM	300 nM	31 nM	> 10000 nM	130 nM	CCCCN(C)CNCC(=O)[C@H](CC(=O)O)NC(=O)C(CC)n1ccnc(NCc2nonc2C)c1=O (stereo not given in full)
23 nM	1450 nM	880 nM	9220 nM	260 nM	CCC(C(=O)N[C@@H](CC(=O)O)C(=O)CNCN1C2CCC1CC2)n1ccnc(NCc2nonc2C)c1=O (stereo not given in full)
